According to patent publication US20070036776A1, “Bacterial signaling molecules that down-regulate pathogenic bacterial virulence properties” (priority 2004, published 2007):

Test system: human peripheral blood mononuclear cells (PBMCs)
Assay type: cell-based

## toxic shock syndrome toxin-1 [TSST-1]
  concentration of maximum stimulation: 50 ng/mL
  half maximal proliferation: approximately 500 pg/mL

## staphylococcal superantigen-like protein 11 [SSL11]
  induction of T cell proliferation: not able to induce
